# Laboratory results reported in ChEMBL document CHEMBL1671737, “Impact of recA on levofloxacin exposure-related resistance development” (2010).
# The source made the active and inactive calls. The rule behind the calls is not given here.
# Key:
# [1] = test system: Staphylococcus aureus; assay: Antimicrobial activity against recA-deficient Staphylococcus aureus ASAU022 after 24 hrs by modified broth macrodilution method; conditions: ASAU022, 24 h
# [2] = test system: Escherichia coli; assay: Antimicrobial activity against recA-deficient Escherichia coli MG1655 after 24 hrs by modified broth macrodilution method; type: functional; conditions: MG1655, 24 h
# [3] = test system: Staphylococcus aureus; assay: Antimicrobial activity against methicillin-resistant Staphylococcus aureus ASAU021 after 24 hrs by modified broth macrodilution method; conditions: ASAU021, 24 h
# [4] = test system: Staphylococcus aureus; assay: Bactericidal activity against recA-deficient Staphylococcus aureus ASAU022 assessed as induction of increase bacterial kill rate at 2 times MIC by time kill study; type: functional, organism-based
# [5] = test system: Staphylococcus aureus; assay: Antimicrobial activity against methicillin-resistant Staphylococcus aureus ASAU021 infected in in vitro hollow fiber infection model assessed as suppression of microbial resistance at AUC/MIC ratio of >32; type: functional, organism-based
# [6] = test system: Staphylococcus aureus; assay: Bactericidal activity against recA-deficient Staphylococcus aureus ASAU022 assessed as induction of slow growth rate at 0.5 times MIC by time kill study; type: functional, organism-based
# [7] = test system: Staphylococcus aureus; assay: Antimicrobial activity against recA-deficient Staphylococcus aureus ASAU022 infected in in vitro hollow fiber infection model assessed as suppression of microbial resistance at AUC/MIC ratio of >23; type: functional, organism-based
# [8] = test system: Staphylococcus aureus; assay: Antimicrobial activity against recA-deficient Staphylococcus aureus ASAU022 infected in in vitro hollow fiber infection model assessed as suppression of microbial resistance at AUC/MIC ratio of 31; type: functional, organism-based
smiles,measurement,setting,value
C[C@H]1COc2c(N3CCN(C)CC3)c(F)cc3c(=O)c(C(=O)O)cn1c23.C[C@H]1COc2c(N3CCN(C)CC3)c(F)cc3c(=O)c(C(=O)O)cn1c23.O [LEVOFLOXACIN],MIC,[1],0.25 µg/mL
same,MIC,[2],0.004 µg/mL
same,MIC,[3],1 µg/mL
same,inhibition,[4],Active
same,Activity,[5],Active
same,inhibition,[6],Active
same,Activity,[7],Active
same,Activity,[8],Active
